From US20140011853A1, “SUBSTITUTED 3-(BIPHENYL-3-YL)-8,8-DIFLUORO-4-HYDROXY-1-AZASPIRO[4.5]DEC-3-EN-2-ONES FOR THERAPY” (BAYER INTELLECTUAL PROPERTY GMBH, priority 2011, published 2014)
Values joined by “and” are separate entries in the source; they are usually repeats but may differ in a detail not shown here. Identical values can stand only once.

Tests used:
Myzus persicae = test: Myzus test (MYZUPE spray treatment); type: in vivo; conditions: for pest or weed control at 500 g/ha / effect (kill of aphids): after 6 days, 500 g/ha; for pest or weed control at 500 g/ha: read-out: effect (kill of aphids)
Excerpt: Disks of Chinese cabbage (Brassica pekinensis) infested by all stages of the green peach aphid (Myzus persicae) are sprayed with an active compound formulation of the desired concentration.

MCF7 = test: Tumour cell proliferation, CellTiter-Glo, 96-hour incubation, MCF7; type: cell-based; conditions: Homo sapiens, MCF7, 96 h; read-out: MCF7 IC50
Protocol: (§1) In accordance with the invention, the substances were tested in cell-based assays for the ability of the substances of inhibiting tumour cell proliferation after a 96-hour incubation with the substance. Cell viability was tested using the CellTiter-Glo® luminescent cell viability assay (Promega). The cells were sown at a density of 2000-5000 cells/well (depending on the cell line) in 100 μl growth medium on 96-well microtiter plates. For each cell line examined, cells were sown on a separate plate to determine the luminescence at t=0 hours and t=96 hours. After overnight incubation at 37° C., the luminescence values for the t=0 samples were determined. The dose plates for the t=96 hours points in time were treated with substances diluted with growth medium. The cells were then incubated at 37° C. for 96 hours, and the luminescence values for the t=96 hours samples were then determined. For data analysis, the t=0 values were subtracted from the t=96 hours values for treated and untreated samples. The differences in luminescence in percent between substance-treated samples and control values were used to determine the growth inhibition in percent.
(§2) The substances were tested in the following cell lines which represent the stated indications in an exemplary manner: […]

human ACC2 = human ACC2 (Homo sapiens, UniProt O00763); test: Human ACC2 enzyme assay (ADP-Glo); conditions: ACC 2 IC50, individual measurements
PC3 = test: Tumour cell proliferation, CellTiter-Glo, 96-hour incubation, PC3; type: cell-based; conditions: Homo sapiens, PC-3, 96 h; read-out: PC3 IC50
Protocol: as §1, §2

KM12 = test: Tumour cell proliferation, CellTiter-Glo, 96-hour incubation, KM12; type: cell-based; conditions: Homo sapiens, KM12, 96 h; read-out: KM12 IC50
Protocol: as §1, §2

Phaedon cochleariae = test: Phaedon test (PHAECO spray treatment); conditions: for effect (kill of beetle larvae): 500 g/ha, after 7 days
human ACC1 [1] = target: T1, human ACC1 (Homo sapiens, UniProt Q13085); test: Human ACC1 enzyme assay (ADP-Glo); type: biochemical; conditions: individual measurements; read-out: ACC 1 IC50
T1 construct: FLAG (C); made in house; host or cells: baculovirus-infected insect cells (Hi5)

human ACC1 [2] = test: Human ACC1 enzyme assay (ADP-Glo); type: biochemical; conditions: for Ratio of IC50s ACC2/ACC1 (respective measurement): pairwise, same dilution series
Spodoptera frugiperda = Spodoptera frugiperda test (SPODFR spray treatment); type: in vivo; conditions: 500 g/ha, after 7 days
H460 = test: Tumour cell proliferation, CellTiter-Glo, 96-hour incubation, H460; type: cell-based; conditions: Homo sapiens, NCI-H460, 96 h; read-out: H460 IC50
Protocol: as §1, §2

Tetranychus urticae = test: Tetranychus test, OP-resistant (TETRUR spray treatment); type: in vivo; conditions: for pest or weed control at 100 g/ha / effect (kill of spider mites): after 6 days; for pest or weed control at 100 g/ha: read-out: effect (kill of spider mites)
[3] = Membrane affinity logMA (MA-Transil); type: physicochemical; conditions: buffer pH 7.4
[4] = target: human serum albumin (HSA) (Homo sapiens, UniProt P02768); test: Protein binding to human serum albumin (HSA-Transil)
[5] = Octanol/water distribution coefficient (logP/D), isocratic HPLC method; type: physicochemical; conditions: pH 7.4
Excerpt: Assay for Determining the Octanol/Water Distribution Coefficient (logP/D):
The distribution coefficient octanol/water P or D is a key parameter for estimating membrane penetration and permeability. It is defined as the ratio of the equilibrium concentrations of a substance in the two-phase system octanol/water.
It is usually stated in form of the decadic logarithm (logP or logD).
logP describes the distribution behaviour of a substance exclusively present in its neutral form. logD describes the distribution behaviour of a substance at a certain pH; depending on the ionization constant pKa of the substance, some of the substance may be present in ionic form, and some in neutral form.
The logP/D of the active compounds was determined using an isocratic HPLC method (HPLC=high performance liquid chromatography) (literature: OECD Guideline for Testing of Chemicals No. 117). The method is based on the correlation of the HPLC retention time of the test substance to that of reference substances with known distribution coefficients.
The test substance was employed as a 10 mM solution in DMSO (DMSO=dimethyl sulphoxide). 10 μl of this solution were made up to 100 μl with a methanol/water mixture in a ratio of 7+3.
The nine reference substances were dissolved individually in methanol. 100 μl each of the stock solutions were added to an HPLC vial and mixed with 300 μl of water.
A formamide solution was used to determine the hold-up time. To this end, 7 mg of formamide were dissolved in 10 ml of methanol. 100 μl of this stock solution were mixed with 500 μl of methanol and 200 μl of water.
All solutions were chromatographed using a flow rate of 1.00 ml/min.
Injection Protocol: formamide, references, test substance 1, test substance 2, . . . , formamide, references.
Evaluation of the retention times was carried out in a diode array detector (DAD) at 200-400 nm Via the molecular mass, the identity of the test substance was checked using the downstream mass spectrometer.
The HPLC run was evaluated using the Waters software Masslynx 4.1.
The logP/D values were calculated using the software “POW Determination” (proprietary development).

[6] = Tetranychus urticae, 144 h, 100 g/ha

Sequence of human ACC2 (O00763 27-2458 limits assumed): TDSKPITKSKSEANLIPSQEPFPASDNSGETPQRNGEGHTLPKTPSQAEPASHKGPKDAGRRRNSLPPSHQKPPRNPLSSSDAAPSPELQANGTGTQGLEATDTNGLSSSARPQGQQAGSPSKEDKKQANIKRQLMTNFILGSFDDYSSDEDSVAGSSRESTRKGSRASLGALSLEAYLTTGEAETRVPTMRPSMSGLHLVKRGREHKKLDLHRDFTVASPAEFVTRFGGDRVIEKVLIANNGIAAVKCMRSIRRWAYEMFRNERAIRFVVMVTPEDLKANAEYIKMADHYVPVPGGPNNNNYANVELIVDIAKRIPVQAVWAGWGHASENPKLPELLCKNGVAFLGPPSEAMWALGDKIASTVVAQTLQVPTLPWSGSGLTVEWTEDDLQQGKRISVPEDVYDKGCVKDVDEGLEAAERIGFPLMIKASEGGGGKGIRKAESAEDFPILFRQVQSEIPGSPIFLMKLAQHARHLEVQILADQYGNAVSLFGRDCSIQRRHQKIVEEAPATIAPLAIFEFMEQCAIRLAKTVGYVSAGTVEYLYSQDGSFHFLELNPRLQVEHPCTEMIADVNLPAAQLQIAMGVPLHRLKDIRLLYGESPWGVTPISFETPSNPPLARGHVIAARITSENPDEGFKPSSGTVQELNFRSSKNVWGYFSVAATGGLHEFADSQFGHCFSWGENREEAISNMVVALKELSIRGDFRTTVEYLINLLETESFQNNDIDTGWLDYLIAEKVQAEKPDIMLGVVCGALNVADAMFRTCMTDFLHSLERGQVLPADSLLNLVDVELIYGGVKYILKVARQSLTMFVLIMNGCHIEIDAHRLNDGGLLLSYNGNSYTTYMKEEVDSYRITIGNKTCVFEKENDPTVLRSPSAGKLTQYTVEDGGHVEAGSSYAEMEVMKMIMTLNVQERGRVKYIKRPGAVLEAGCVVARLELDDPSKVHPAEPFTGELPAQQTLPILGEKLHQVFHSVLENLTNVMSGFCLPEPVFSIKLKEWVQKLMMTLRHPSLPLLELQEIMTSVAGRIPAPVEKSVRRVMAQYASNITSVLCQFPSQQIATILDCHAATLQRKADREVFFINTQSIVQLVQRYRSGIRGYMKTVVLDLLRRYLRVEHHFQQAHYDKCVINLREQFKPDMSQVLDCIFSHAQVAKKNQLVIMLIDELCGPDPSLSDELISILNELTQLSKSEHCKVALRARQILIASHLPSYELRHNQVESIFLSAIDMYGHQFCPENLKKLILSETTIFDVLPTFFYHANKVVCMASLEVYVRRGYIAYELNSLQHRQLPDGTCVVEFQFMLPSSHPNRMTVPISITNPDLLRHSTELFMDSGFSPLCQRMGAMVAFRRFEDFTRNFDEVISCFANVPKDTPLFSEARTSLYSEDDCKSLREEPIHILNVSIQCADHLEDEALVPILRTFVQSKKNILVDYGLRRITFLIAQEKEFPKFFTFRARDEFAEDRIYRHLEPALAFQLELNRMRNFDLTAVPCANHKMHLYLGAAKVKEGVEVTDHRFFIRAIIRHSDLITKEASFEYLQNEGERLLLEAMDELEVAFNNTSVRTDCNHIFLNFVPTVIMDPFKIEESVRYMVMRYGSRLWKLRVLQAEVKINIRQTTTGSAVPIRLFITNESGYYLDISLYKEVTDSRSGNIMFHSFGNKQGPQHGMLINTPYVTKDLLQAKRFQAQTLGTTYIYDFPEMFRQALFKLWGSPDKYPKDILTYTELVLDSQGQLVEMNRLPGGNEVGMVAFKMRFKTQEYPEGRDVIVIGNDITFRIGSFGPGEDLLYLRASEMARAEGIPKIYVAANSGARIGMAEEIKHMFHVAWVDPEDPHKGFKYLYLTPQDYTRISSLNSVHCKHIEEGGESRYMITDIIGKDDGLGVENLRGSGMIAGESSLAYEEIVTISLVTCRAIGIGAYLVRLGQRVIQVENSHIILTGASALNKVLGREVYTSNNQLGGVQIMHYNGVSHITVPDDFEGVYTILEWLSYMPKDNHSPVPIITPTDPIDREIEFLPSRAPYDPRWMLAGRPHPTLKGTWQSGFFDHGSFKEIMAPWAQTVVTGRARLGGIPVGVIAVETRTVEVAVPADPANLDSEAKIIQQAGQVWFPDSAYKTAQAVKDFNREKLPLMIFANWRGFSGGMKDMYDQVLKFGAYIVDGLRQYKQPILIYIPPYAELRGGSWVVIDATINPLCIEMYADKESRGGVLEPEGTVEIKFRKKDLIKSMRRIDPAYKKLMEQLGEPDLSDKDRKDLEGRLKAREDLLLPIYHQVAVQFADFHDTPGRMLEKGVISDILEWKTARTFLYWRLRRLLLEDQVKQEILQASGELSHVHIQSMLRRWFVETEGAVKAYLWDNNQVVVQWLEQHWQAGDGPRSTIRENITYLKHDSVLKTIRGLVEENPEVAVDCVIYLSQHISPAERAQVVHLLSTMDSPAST
Sequence of human serum albumin (HSA) (P02768 25-609): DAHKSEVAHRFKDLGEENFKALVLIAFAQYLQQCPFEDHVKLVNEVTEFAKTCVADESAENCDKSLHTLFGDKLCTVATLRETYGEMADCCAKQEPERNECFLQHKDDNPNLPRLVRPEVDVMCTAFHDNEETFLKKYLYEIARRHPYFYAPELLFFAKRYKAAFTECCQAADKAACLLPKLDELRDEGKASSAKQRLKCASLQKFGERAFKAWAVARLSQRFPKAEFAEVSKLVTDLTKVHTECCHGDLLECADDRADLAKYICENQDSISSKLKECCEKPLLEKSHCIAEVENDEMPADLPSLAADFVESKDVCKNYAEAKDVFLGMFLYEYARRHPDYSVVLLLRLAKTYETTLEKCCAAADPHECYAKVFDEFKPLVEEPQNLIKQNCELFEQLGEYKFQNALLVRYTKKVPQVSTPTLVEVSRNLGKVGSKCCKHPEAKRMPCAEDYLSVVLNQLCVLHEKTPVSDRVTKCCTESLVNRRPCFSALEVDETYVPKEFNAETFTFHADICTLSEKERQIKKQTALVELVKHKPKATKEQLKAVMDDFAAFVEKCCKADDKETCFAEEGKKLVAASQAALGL

Row | Structure (SMILES) | pest or weed control at 500 g/ha (Myzus persicae; Myzus persicae, 144 h) [%] | effect (kill of beetle larvae) (Phaedon cochleariae) [%] | effect (kill of caterpillars) (Spodoptera frugiperda) [%] | pest or weed control at 100 g/ha (Tetranychus urticae; [6]) [%] | effect (kill of aphids) (Myzus persicae) [%] | also measured
1 | Cc1cc(C)c(C2=C(O)C3(CCC(F)(F)CC3)OC2=O)cc1C [Example I-2-a-1] | 100 |  |  |  |  | 
2 | O=C1NC2(CCC(F)(F)CC2)C(O)=C1c1cc(-c2ccc(Cl)cc2)ccc1Cl [Example 1-4, 3-(4,4′-Dichlorobiphenyl-3-yl)-8,8-difluoro-4-hydroxy-1-azaspiro[4.5]dec-3-en-2-one] | 90 | 100 | 100 | 90 |  | IC50 (MCF7): 86 nM; IC50 (human ACC2): 5480 nM and 3110 nM; IC50 (PC3): 231 nM; IC50 (KM12): 319 nM; IC50 (human ACC1 [1]): 121 nM and 91 nM; Selectivity ACC1 vs. ACC2 (mean of the individual measurements ± standard deviation) (human ACC1 [2]): 39.7 ± 5.7; Ratio of IC50s ACC2/ACC1 (respective measurement) (human ACC1 [2]): 45.5 and 34.0; IC50 (H460): 481 nM
3 | CCc1cc(C)cc(C)c1C1=C(OC(=O)C(C)C)C2(CCC(F)(F)CC2)NC1=O [Example I-1-b-1] | 100 |  |  | 100 |  | 
4 | Cc1ccc(-c2ccc(F)c(F)c2)cc1C1=C(O)C2(CCCCC2)NC1=O [prior art WO 2008/067911 Table 1, reference compound] |  |  |  |  |  | inhibition at 20 g/ha (Phaedon cochleariae; Phaedon cochleariae, 168 h, read-out: % activity PHAECO): 0%; inhibition at 20 g/ha (Myzus persicae; Myzus persicae, 144 h, read-out: % activity MYZUPE): 0%; inhibition at 20 g/ha (Tetranychus urticae; Tetranychus urticae, 144 h, read-out: % activity TETRUR): 0%
5 | Cc1cc(C)c(C2=C(OC(=O)C(C)C)C3(CCC(F)(F)CC3)OC2=O)cc1C [Example I-2-b-1] | 100 |  | 83 |  |  | 
6 | CCc1cc(C)cc(C)c1C1=C(O)C2(CCC(F)(F)CC2)NC1=O [Example I-1-a-11] |  |  |  |  |  | effect (kill of spider mites) (Tetranychus urticae; 100 g/ha): 100%
7 | Cc1ccc(-c2ccc(Cl)c(F)c2)cc1C1=C(O)[C@]2(CC[C@H](C(F)(F)F)CC2)NC1=O [V.1-a, (5s,8s)-3-(4′-Chloro-3′-fluoro-4-methylbiphenyl-3-yl)-4-hydroxy-8-(trifluoromethyl)-1-azaspiro[4.5]dec-3-en-2-one, reference compound] |  |  |  |  |  | IC50 (MCF7): 30 nM; IC50 (human ACC2): 580 nM and 610 nM; IC50 (PC3): 398 nM; IC50 (KM12): 245 nM; logMA [3]: 2.55 (2.4-2.7, n = 2); IC50 (human ACC1 [1]): 67 nM and 59 nM; Selectivity ACC1 vs. ACC2 (mean of the individual measurements ± standard deviation) (human ACC1 [2]): 9.4 ± 0.8; Ratio of IC50s ACC2/ACC1 (respective measurement) (human ACC1 [2]): 8.6 and 10.3; Kd [4]: 1430 nM; chromatographic logP [5]: 2.55; IC50 (H460): 573 nM
8 | Cc1cc(OCC(F)(F)F)cc(C)c1C1=C(O)C2(CCC(F)(F)CC2)NC1=O [Example I-1-a-8] | 100 | 100 |  | 100 |  | 
9 | Cc1cc(C)c(C2=C(O)C3(CCC(F)(F)CC3)OC2=O)c(C)c1 [Example I-2-a-4] |  | 100 |  |  | 100 | 
10 | CCOC(=O)OC1=C(c2c(C)cc(C)cc2CC)C(=O)NC12CCC(F)(F)CC2 [Example I-1-c-1] | 90 |  |  | 100 |  | 
11 | Cc1cc(C)c(C2=C(O)C3(CCC(F)(F)CC3)NC2=O)c(C)c1 [Example I-1-a-1] | 100 |  | 83 | 100 |  | 
12 | Cc1cc(-c2ccc(Cl)cc2)cc(C)c1C1=C(O)C2(CCC(F)(F)CC2)NC1=O [Example I-1-a-9] | 100 | 100 |  | 100 |  | 
13 | Cc1cc(Cl)cc(C)c1C1=C(O)C2(CC=C(F)CC2)NC1=O (stereo not drawn) [Example I-1-a-13] |  | 100 |  |  | 100 | effect (kill of spider mites) (Tetranychus urticae; 100 g/ha): 90%
14 | Cc1cc(Cl)cc(C)c1C1=C(O)C2(CCC(F)(F)CC2)NC1=O [Example I-1-a-7] |  | 100 |  |  | 100 | effect (kill of spider mites) (Tetranychus urticae; 100 g/ha): 100%
15 | Cc1cc(Br)cc(C)c1C1=C(O)C2(CCC(F)(F)CC2)NC1=O [Example I-1-a-5] |  | 100 |  |  | 100 | effect (kill of spider mites) (Tetranychus urticae; 100 g/ha): 100%
16 | Cc1ccc(-c2ccc(F)cc2)c(C)c1C1=C(O)C2(CC=C(F)CC2)NC1=O (stereo not drawn) [Example I-1-a-12] |  | 100 | 100 |  | 100 | effect (kill of spider mites) (Tetranychus urticae; 500 g/ha): 100%
17 | Cc1ccc(-c2ccc(F)cc2)cc1C1=C(O)C2(CCC(F)(F)CC2)NC1=O [Example 1-3, 8,8-Difluoro-3-(4′-fluoro-4-methylbiphenyl-3-yl)-4-hydroxy-1-azaspiro[4.5]dec-3-en-2-one] | 90 | 100 | 100 | 100 |  | IC50 (MCF7): 209 nM; IC50 (human ACC2): > 20000 nM; IC50 (PC3): 476 nM; IC50 (KM12): 578 nM; IC50 (human ACC1 [1]): 166 nM and 241 nM; Selectivity ACC1 vs. ACC2 (mean of the individual measurements ± standard deviation) (human ACC1 [2]): >101.8 ± 19.0; Ratio of IC50s ACC2/ACC1 (respective measurement) (human ACC1 [2]): >120.8 and >82.8; IC50 (H460): 678 nM
18 | Cc1ccc(Br)cc1C1=C(O)C2(CCC(F)(F)CC2)NC1=O [Example I-1-a-14, 3-(5-Bromo-2-methylphenyl)-8,8-difluoro-4-hydroxy-1-azaspiro[4.5]dec-3-en-2-one] | 100 |  |  |  |  | 
19 | Cc1ccc(-c2ccc(F)cc2)c(C)c1C1=C(O)C2(CCC(F)(F)CC2)OC1=O [Example I-2-a-2] |  | 100 | 100 |  | 100 | effect (kill of spider mites) (Tetranychus urticae; 500 g/ha): 100%
20 | Cc1ccc(-c2ccc(Cl)cc2)cc1C1=C(O)C2(CCC(F)(F)CC2)OC1=O [Example I-2-a-3] |  | 100 | 100 |  | 90 | 
